Data reported in patent US9499490B2, “Fluorophenyl pyrazol compounds” (Eli Lilly and Company, priority 2013, dated 2016).
pIC50: −log10 of the molar value.

Experiments:
human MetAP1 = target: T1, human MetAP1 (Homo sapiens, UniProt P53582); experiment: Enzymatic activity assay of human MetAP1 (fluorescent rhodamine substrate); assay type: biochemical; conditions: full length human MetAP1, substrate 50 μM, 60 min
T1 construct: Full length MetAP2 (human and mouse) and MetAP1 (human) proteins are generated from Sf9 cells; made in house; host or cells: Sf9 insect cells
Protocol: (§1) Full length MetAP2 (human and mouse) and MetAP1 (human) proteins are generated from Sf9 cells using procedure similar to that described in Biochemistry 2003, 42, 5035-5042. MetAP2 and MetAP1 are purified in the presence of 5 mM MnCl2 and 2 mM CoCl2 respectively, and stored at −78° C. before use.
(§2) Compound inhibition of the catalytic activity of human and mouse MetAP2 in the present invention is monitored by the formation of the product peptide (Gly-Lys-Val-Lys-Val-Gly-Val-Asn-Gly) from the substrate peptide (Met-Gly-Lys-Val-Lys-Val-Gly-Val-Asn-Gly) via LC/MS detection. The reaction is typically conducted by incubating the enzyme, testing compound and substrate (150 μM) in a 100 μl assay buffer (50 mM HEPES, 100 mM NaCl, 50 mg/mL BSA, 0.17 mM Triton X-100 at pH 7.5) for 40 min. After the reaction is stopped by the addition of 200 μl acetonitrile, the levels of product and remaining substrate are quantified on a mass spectrometer. The activity of human MetAP1 is monitored by the formation of the fluorescent product rhodmine-methionine from the substrate methionine-rhodamine-methionine on a spectrophotometer with the excitation light at 460 nm and emission light at 535 nm. The reaction is typically conducted by incubating the enzyme, testing compound and substrate (50 μM) in a 100 μl assay buffer (50 mM HEPES, 100 mM NaCl, 0.1% BSA, 0.05% Tween-20, 50 μM CoCl2) for 60 min. […]

human MetAP2 = target: T2, human MetAP2 (Homo sapiens, UniProt P50579); experiment: Enzymatic activity assay of human MetAP2 (LC/MS detection of product peptide); assay type: biochemical; conditions: full length human MetAP2, substrate 150 μM, 40 min; read-out: IC50 value for hMetAP2
T2 construct: Full length MetAP2 (human and mouse) and MetAP1 (human) proteins are generated from Sf9 cells; made in house; host or cells: Sf9 insect cells
T2 sequence (P50579 whole entry): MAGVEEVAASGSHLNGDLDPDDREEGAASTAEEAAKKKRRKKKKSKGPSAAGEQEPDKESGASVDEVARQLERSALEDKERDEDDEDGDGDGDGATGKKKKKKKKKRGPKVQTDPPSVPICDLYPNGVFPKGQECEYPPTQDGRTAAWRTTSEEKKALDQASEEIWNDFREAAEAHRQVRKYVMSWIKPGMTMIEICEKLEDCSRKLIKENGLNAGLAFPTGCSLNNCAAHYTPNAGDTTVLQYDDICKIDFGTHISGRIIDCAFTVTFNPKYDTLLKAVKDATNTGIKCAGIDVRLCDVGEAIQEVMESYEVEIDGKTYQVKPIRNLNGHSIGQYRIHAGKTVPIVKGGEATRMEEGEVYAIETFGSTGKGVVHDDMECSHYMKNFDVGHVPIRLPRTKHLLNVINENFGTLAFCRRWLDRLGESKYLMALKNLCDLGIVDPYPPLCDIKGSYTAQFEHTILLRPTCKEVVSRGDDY
Protocol: as §1, §2

mouse MetAP2 = target: T3, mouse MetAP2 (Mus musculus, UniProt O08663); experiment: Enzymatic activity assay of mouse MetAP2 (LC/MS detection of product peptide); assay type: biochemical; conditions: full length mouse MetAP2, substrate 150 μM, 40 min; read-out: IC50 value for mMetAP2
T3 construct: Full length MetAP2 (human and mouse) and MetAP1 (human) proteins are generated from Sf9 cells; made in house; host or cells: Sf9 insect cells
T3 sequence (O08663 whole entry): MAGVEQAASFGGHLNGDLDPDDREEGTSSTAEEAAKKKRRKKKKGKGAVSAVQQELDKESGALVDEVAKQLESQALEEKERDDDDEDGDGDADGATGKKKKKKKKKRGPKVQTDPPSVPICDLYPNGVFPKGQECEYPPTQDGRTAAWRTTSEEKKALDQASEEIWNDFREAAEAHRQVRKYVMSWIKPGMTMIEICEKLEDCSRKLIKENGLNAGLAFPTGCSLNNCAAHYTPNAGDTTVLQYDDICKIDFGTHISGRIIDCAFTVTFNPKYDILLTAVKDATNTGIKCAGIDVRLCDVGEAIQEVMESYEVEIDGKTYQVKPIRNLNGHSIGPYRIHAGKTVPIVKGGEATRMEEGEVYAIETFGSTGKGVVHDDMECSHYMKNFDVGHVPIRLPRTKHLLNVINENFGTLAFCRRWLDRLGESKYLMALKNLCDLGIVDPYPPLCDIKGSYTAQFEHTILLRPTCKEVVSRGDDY
Protocol: as §1, §2

obese DIO mice = experiment: Therapeutic weight loss effect in high fat diet induced obese (DIO) mice; assay type: in vivo, mouse; conditions: oral 30 mg/kg twice a day
Protocol: To determine the therapeutic weight loss effects and improvement of metabolic parameters, compounds from the invention are tested in the high fat diet (HFD) feeding induced obese mouse model (DIO mice). In this model, C57/B16J male mouse is fed with the 60% HFD (D12492i, Research Diets) for 16˜28 weeks to establish obesity with body weight reaching around 50 g. The mice will gradually increase the body weight to about 50 g and maintain that weight in this obese state. Test compound (via the vehicle of 0.5% HEC plus 0.25% Tween-80 at 5 mL/kg) is administered orally to the obese DIO mice once or twice daily throughout the study duration. The dose-dependent weight loss of obese DIO mice for Example 1 of the oral treatment at 30 mg/kg twice a day is about 6%, 10%, and 14% weight loss compared to the vehicle group at day 7, day 14, and day 21 respectively. The data support that the compound of Example 1 is associated with desired weight loss and offers therapeutic weight loss effect.

With `NC(=O)NCc1cccc(Oc2c[nH]nc2-c2ccc(F)cc2)c1` [Example 1, [3-[[3-(4-Fluorophenyl)-1H-pyrazol-4-yl]oxy]phenyl]methylurea] the pIC50 (human MetAP1) was under 4.52, the pIC50 (human MetAP2) was 7.96 and the pIC50 (mouse MetAP2) was 7.44. The “weight loss compared to the vehicle group” value (obese DIO mice; day 7) was “about 6%”, the “weight loss compared to the vehicle group” value (obese DIO mice; day 14) was about 10% and the “weight loss compared to the vehicle group” value (obese DIO mice; day 21) was about 14%.
